Laboratory results taken from ChEMBL document CHEMBL1146172, “Identification of novel, orally bioavailable spirohydantoin CGRP receptor antagonists” (Bioorg Med Chem Lett, 2006).

How the values were obtained:
[1] = molecular target: Calcitonin gene-related peptide type 1 receptor (Homo sapiens, UniProt O60894+Q16602); assay: Displacement of [125I]hCGRP from human cloned CGRP receptor expressed in HEK293 cells; type: cell-based
[2] = molecular target: Calcitonin gene-related peptide type 1 receptor (Homo sapiens, UniProt Q16602); assay: Inhibition of CGRP-induced cAMP production in E10 cells; type: functional, cell-based, Mus musculus
Sequence of Calcitonin gene-related peptide type 1 receptor (Homo sapiens, UniProt Q16602) (Q16602 whole entry): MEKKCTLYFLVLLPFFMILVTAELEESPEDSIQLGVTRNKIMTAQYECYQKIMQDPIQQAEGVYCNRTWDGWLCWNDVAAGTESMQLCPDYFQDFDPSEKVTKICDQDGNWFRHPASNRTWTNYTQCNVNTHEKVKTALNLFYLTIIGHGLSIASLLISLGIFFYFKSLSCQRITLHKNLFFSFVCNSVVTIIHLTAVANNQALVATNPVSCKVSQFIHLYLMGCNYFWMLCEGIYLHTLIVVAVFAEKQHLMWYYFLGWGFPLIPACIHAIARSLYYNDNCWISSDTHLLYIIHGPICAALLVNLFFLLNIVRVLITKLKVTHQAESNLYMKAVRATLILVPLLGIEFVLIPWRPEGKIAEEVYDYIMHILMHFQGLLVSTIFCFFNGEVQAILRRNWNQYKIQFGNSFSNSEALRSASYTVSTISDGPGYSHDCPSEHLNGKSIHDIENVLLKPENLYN

[3] = Half life in rat at 2 mpk, iv; type: ADME, organism-based; details: in vivo, 2 mg/kg
[4] = Clearance in rat at 2 mpk, iv; details: in vivo, 2 mg/kg
[5] = Bioavailability in rat at 10 mg/kg, po; type: ADME, organism-based; details: in vivo
Rattus norvegicus = assay: Volume of distribution in rat at 2 mpk, iv; details: in vivo, 2 mg/kg
[6] = Solubility at pH 7.4; type: physicochemical; details: buffer
Canis familiaris = assay: Volume of distribution in dog at 0.5 mpk, iv; details: in vivo, 0.5 mg/kg
Cytochrome P450 3A4 = Cytochrome P450 3A4 (Homo sapiens, UniProt P08684); assay: Inhibition of CYP3A4; type: ADME
Sequence of Cytochrome P450 3A4 (P08684 whole entry): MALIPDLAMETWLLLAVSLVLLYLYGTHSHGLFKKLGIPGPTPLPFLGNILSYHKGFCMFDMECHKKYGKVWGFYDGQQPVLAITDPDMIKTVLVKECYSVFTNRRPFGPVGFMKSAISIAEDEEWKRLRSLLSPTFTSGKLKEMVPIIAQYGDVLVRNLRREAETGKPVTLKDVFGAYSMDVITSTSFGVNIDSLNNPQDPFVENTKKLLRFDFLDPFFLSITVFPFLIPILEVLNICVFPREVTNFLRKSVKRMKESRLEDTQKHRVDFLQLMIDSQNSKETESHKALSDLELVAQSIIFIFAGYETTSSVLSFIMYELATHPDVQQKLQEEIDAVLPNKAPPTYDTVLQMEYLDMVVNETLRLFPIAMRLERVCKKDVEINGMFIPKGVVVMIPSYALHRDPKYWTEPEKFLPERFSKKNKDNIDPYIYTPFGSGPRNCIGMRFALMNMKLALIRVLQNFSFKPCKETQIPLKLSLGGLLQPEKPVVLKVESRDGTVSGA

Cytochrome P450 2C9 = Cytochrome P450 2C9 (Homo sapiens, UniProt P11712); assay: Inhibition of CYP2C9; type: ADME
Sequence of Cytochrome P450 2C9 (P11712 whole entry): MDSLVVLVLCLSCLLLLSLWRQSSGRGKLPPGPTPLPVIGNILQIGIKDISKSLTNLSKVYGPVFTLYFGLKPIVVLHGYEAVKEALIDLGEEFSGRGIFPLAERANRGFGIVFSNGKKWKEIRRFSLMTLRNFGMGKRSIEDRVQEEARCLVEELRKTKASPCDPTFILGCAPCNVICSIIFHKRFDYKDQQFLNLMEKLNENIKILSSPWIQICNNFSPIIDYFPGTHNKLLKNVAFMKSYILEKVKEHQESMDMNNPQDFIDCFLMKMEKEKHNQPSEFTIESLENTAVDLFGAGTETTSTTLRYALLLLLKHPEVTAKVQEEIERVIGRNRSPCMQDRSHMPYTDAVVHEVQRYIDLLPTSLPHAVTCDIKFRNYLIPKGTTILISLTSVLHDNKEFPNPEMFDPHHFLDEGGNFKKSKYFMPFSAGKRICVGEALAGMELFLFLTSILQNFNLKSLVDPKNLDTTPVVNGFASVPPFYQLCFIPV

Rhesus monkey = assay: Volume of distribution in rhesus at 0.5 mpk, iv; details: Macaca mulatta, in vivo, 0.5 mg/kg
[7] = Clearance in dog at 0.5 mpk, iv; details: in vivo, 0.5 mg/kg
[8] = Clearance in rhesus at 0.5 mpk, iv; details: Macaca mulatta, rhesus monkey, in vivo, 0.5 mg/kg
[9] = Half life in rhesus at 0.5 mpk, iv; type: ADME, organism-based, Macaca mulatta; details: rhesus monkey, in vivo, 0.5 mg/kg
[10] = Half life in dog at 0.5 mg/kg, iv; type: ADME, organism-based, Canis lupus familiaris; design: dose 0.5 mg/kg, route intravenous; details: in vivo
[11] = Bioavailability in dog at 2 mg/kg, po; type: ADME, organism-based, Canis lupus familiaris; details: in vivo
Cytochrome P450 2D6 = Cytochrome P450 2D6 (Homo sapiens, UniProt P10635); assay: Inhibition of CYP2D6; type: ADME
Sequence of Cytochrome P450 2D6 (P10635 whole entry): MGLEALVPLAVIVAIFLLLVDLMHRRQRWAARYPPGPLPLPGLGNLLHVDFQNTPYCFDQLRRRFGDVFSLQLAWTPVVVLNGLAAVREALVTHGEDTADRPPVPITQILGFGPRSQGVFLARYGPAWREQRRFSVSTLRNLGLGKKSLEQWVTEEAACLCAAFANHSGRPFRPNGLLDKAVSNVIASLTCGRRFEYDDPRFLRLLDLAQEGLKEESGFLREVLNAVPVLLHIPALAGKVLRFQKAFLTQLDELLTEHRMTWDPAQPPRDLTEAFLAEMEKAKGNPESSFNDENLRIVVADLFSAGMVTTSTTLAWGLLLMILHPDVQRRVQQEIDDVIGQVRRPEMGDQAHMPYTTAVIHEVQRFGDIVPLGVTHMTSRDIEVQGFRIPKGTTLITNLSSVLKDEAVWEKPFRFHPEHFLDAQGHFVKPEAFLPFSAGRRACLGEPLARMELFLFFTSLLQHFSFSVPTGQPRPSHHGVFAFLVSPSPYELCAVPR

[12] = Bioavailability in rhesus at 2 mg/kg, po; type: ADME, organism-based, Macaca mulatta; details: rhesus monkey, in vivo

Sequence of Calcitonin gene-related peptide type 1 receptor (Homo sapiens, UniProt O60894+Q16602) (Q16602 whole entry, one chain of several): as the sequence (Q16602 whole entry) above

| Compound | Ki [1] [nM] | IC50 [2] [nM] | half-life [3] [h] | clearance [4] [mL/min/kg] | bioavailability [5] [%] | Vdss (Rattus norvegicus) [L/kg] | other results |
| --- | --- | --- | --- | --- | --- | --- | --- |
| O=C(Cn1c(=O)oc2ccccc21)Nc1ccc2c(c1)CCC1(C2)NC(=O)NC1=O (centres undefined) | 607 | 3300 | – | – | – | – | – |
| O=C(Cn1c(=O)n(-c2ccccc2)c2ccccc21)Nc1ccc2c(c1)CC1(C2)NC(=O)NC1=O (centres undefined) | 87 | 430 | – | – | – | – | – |
| O=C(Cn1c(=O)[nH]c2ccccc21)Nc1ccc2c(c1)CC1(C2)NC(=O)NC1=O (centres undefined) | 280 | 690 | – | – | – | – | – |
| CN1C(=O)NC(=O)C12Cc1ccc(NC(=O)Cn3c(=O)oc4ccccc43)cc1C2 (centres undefined) | 103 | 1400 | – | – | – | – | – |
| CN1C(=O)NC(=O)[C@]12Cc1ccc(NC(=O)Cn3c(=O)oc4ccccc43)cc1C2 | 48 | 350 | – | – | – | – | – |
| CN1C(=O)NC(=O)[C@]12Cc1ccc(NC(=O)Cn3c(=O)n(-c4cc(F)cc(F)c4)c4ccccc43)cc1C2 | 29 | 180 | 6.5 | 3.1 | 24 | 1.4 | – |
| CN1C(=O)NC(=O)[C@]12Cc1ccc(NC(=O)Cn3c(=O)n(-c4ccccn4)c4ccccc43)cc1C2 | – | – | 1.6 | 3.4 | 36 | 0.47 | Vdss (Canis familiaris): 0.69 L/kg; IC50 (Cytochrome P450 3A4): > 10000 nM; solubility [6]: < 1 µg/mL; IC50 (Cytochrome P450 2C9): > 10000 nM; Vdss (Rhesus monkey): 0.31 L/kg; clearance [7]: 1.7 mL/min/kg; clearance [8]: 0.85 mL/min/kg; half-life [9]: 9.6 h; half-life [10]: 4.8 h; bioavailability [11]: 83%; IC50 (Cytochrome P450 2D6): > 10000 nM; bioavailability [12]: 29% |
| Cn1c(=O)n(CC(=O)Nc2ccc3c(c2)CC2(C3)NC(=O)NC2=O)c2ccccc21 (centres undefined) | 78 | 530 | – | – | – | – | – |
| O=C(Cn1c(=O)oc2ccccc21)Nc1ccc2c(c1)CC1(C2)NC(=O)NC1=O (centres undefined) | 309 | 2900 | – | – | – | – | – |
| CN1C(=O)NC(=O)[C@@]12Cc1ccc(NC(=O)Cn3c(=O)oc4ccccc43)cc1C2 | 1050 | – | – | – | – | – | – |
| CN1C(=O)NC(=O)[C@]12Cc1ccc(NC(=O)Cn3c(=O)n(-c4ncccn4)c4ccccc43)cc1C2 | 25 | 110 | 1.1 | 23 | 2 | 0.5 | – |

The remaining compounds from weak to strong by Ki [1], led by results:

| Ki [1] [nM] | IC50 [2] [nM] | half-life [3] [h] | clearance [4] [mL/min/kg] | bioavailability [5] [%] | Vdss (Rattus norvegicus) [L/kg] | Compound | other results |
| --- | --- | --- | --- | --- | --- | --- | --- |
| 20 | 61 | 0.9 | 9 | 5 | 0.43 | CN1C(=O)NC(=O)[C@]12Cc1ccc(NC(=O)Cn3c(=O)n(C4CCOC4)c4ccccc43)cc1C2 (some centres undefined) | – |
| 17 | 64 | 1.1 | 31 | 0 | 0.8 | CN1C(=O)NC(=O)[C@]12Cc1ccc(NC(=O)Cn3c(=O)n(C4CCS(=O)(=O)C4)c4ccccc43)cc1C2 (some centres undefined) | solubility [6]: > 100 µg/mL |
| 15 | 54 | 1.2 | 11 | 13 | 0.84 | COc1cccc(-n2c(=O)n(CC(=O)Nc3ccc4c(c3)C[C@]3(C4)C(=O)NC(=O)N3C)c3ccccc32)n1 | – |
| 12 | 64 | 1.1 | 11 | 1 | 0.64 | CN1C(=O)NC(=O)[C@]12Cc1ccc(NC(=O)Cn3c(=O)n(-c4cnccn4)c4ccccc43)cc1C2 | – |
| 10 | 50 | 2.8 | 7.5 | 0 | 1.8 | CN1C(=O)NC(=O)[C@]12Cc1ccc(NC(=O)Cn3c(=O)n(-c4nccc(C(F)(F)F)n4)c4ccccc43)cc1C2 | – |
| 9.5 | 50 | 0.5 | 46 | 0 | 0.95 | CN1C(=O)NC(=O)[C@]12Cc1ccc(NC(=O)Cn3c(=O)n(-c4cncnc4)c4ccccc43)cc1C2 | solubility [6]: > 100 µg/mL |
| 8.7 | 24 | 2 | 3.7 | 20 | 0.54 | CN1C(=O)NC(=O)[C@]12Cc1ccc(NC(=O)Cn3c(=O)n(-c4nccs4)c4ccccc43)cc1C2 | solubility [6]: < 1 µg/mL |
| 6.8 | 39 | 1 | 60 | 1 | 2 | CN1C(=O)NC(=O)[C@]12Cc1ccc(NC(=O)Cn3c(=O)n(-c4cnsc4)c4ccccc43)cc1C2 | – |
